Measured values reported in ChEMBL document CHEMBL2029330 (Bioorg Med Chem Lett, 2012).
In brackets after ≈: the same amount, converted by molar mass. Blank lines part the entries; values can stand above or below the compound they belong to.

Experiments:
in vitro = details: human, hepatocytes
[1] = Clearance in rat; format: ADME, organism-based; details: in vivo
[2] = Half life in rat; format: ADME, organism-based; details: in vivo
[3] = Volume of distribution at steady state in rat; format: ADME, organism-based; details: in vivo, read-out: Vdss
[4] = Oral bioavailability in rat; format: ADME, organism-based; details: in vivo
[5] = Clearance in dog; format: ADME, organism-based, Canis lupus familiaris; details: in vivo
[6] = Volume of distribution at steady state in dog; format: ADME, organism-based, Canis lupus familiaris; details: in vivo, read-out: Vdss
[7] = Half life in dog; format: ADME, organism-based, Canis lupus familiaris; details: in vivo
[8] = Oral bioavailability in dog; format: ADME, organism-based, Canis lupus familiaris; details: in vivo
[9] = Aqueous solubility of the compound at pH 7.4; format: physicochemical; details: aqueous medium
[10] = Lipophilicity, log D of the compound at pH 7.4; format: physicochemical; details: buffer
[11] = Dissociation constant, pKa of the compound; format: physicochemical
[12] = Apparent permeability of the compound from apical to basolateral side across human Caco2 cells at 10 uM; format: ADME, cell-based; details: Caco-2
[13] = Apparent permeability of the compound from basolateral to apical side across human Caco2 cells at 10 uM; format: ADME, cell-based; details: Caco-2

SMILES: Cc1ccc(NC(=O)c2ccccc2)cc1-n1cnc2ccc(N3CCN(C)CC3)cc2c1=O
hepatocyte CLint (in vitro): 6 µL/min/1e6 cells

SMILES: Cc1ccc(C(=O)Nc2ccon2)cc1-n1cnc2ccc(N3CCN(C)CC3)cc2c1=O
clearance [1]: 17 mL/min/kg
half-life [2]: 1.7 h
Vd [3]: 2.5 L/kg
bioavailability [4]: 41%
clearance [5]: 19 mL/min/kg
Vd [6]: 3.7 L/kg
half-life [7]: 4 h
bioavailability [8]: 20%

SMILES: Cc1ccc(NC(=O)c2cscn2)cc1-n1cnc2ccc(N3CCN(C)CC3)cc2c1=O
hepatocyte CLint (in vitro): 7 µL/min/1e6 cells

SMILES: COc1ccccc1C(=O)Nc1ccc(C)c(-n2cnc3ccc(N4CCN(C)CC4)cc3c2=O)c1
hepatocyte CLint (in vitro): 5 µL/min/1e6 cells

SMILES: Cc1ccc(NC(=O)c2ccccc2F)cc1-n1cnc2ccc(N3CCN(C)CC3)cc2c1=O
hepatocyte CLint (in vitro): 7 µL/min/1e6 cells

SMILES: Cc1ccc(NC(=O)c2ccc(C#N)cc2)cc1-n1cnc2ccc(N3CCN(C)CC3)cc2c1=O
Vd [3]: 4.8 L/kg
bioavailability [4]: 29%
Vd [6]: 7.8 L/kg
bioavailability [8]: 53%

SMILES: Cc1ccc(NC(=O)c2cncs2)cc1-n1cnc2ccc(N3CCN(C)CC3)cc2c1=O
hepatocyte CLint (in vitro): < 3 µL/min/1e6 cells

SMILES: Cc1ccc(C(=O)NC2CC2)cc1-n1cnc2ccc(N3CCN(C)CC3)cc2c1=O [AZD-6703]
clearance [1]: 26 mL/min/kg
Vd [3]: 1.9 L/kg
bioavailability [4]: 49%
clearance [5]: 24 mL/min/kg
Vd [6]: 3.3 L/kg
half-life [7]: 1.7 h
bioavailability [8]: 68%
logD [10]: 1.6
pKa [11]: 7.6
Papp A→B at 10 µM [12]: 6 ×10⁻⁶ cm/s
Papp B→A at 10 µM [13]: 11 ×10⁻⁶ cm/s
hepatocyte CLint (in vitro): 2 µL/min/1e6 cells

Now from value to compound:

solubility [9]: 300 µM (≈ 162 µg/mL)
SMILES: Cc1ccc(NC(=O)c2cccc(N3CCOCC3)c2)cc1-n1cnc2ccc(N3CCN(C)CC3)cc2c1=O

hepatocyte CLint (in vitro): 11 µL/min/1e6 cells
SMILES: Cc1ccc(NC(=O)c2cccc(F)c2)cc1-n1cnc2ccc(N3CCN(C)CC3)cc2c1=O

solubility [9]: 300 µM (≈ 166 µg/mL)
SMILES: Cc1ccc(NC(=O)c2ccnc(N3CCOCC3)c2)cc1-n1c(C)nc2ccc(N3CCN(C)CC3)cc2c1=O

solubility [9]: 300 µM (≈ 162 µg/mL)
hepatocyte CLint (in vitro): 17 µL/min/1e6 cells
SMILES: Cc1ccc(NC(=O)c2ccnc(N3CCOCC3)c2)cc1-n1cnc2ccc(N3CCN(C)CC3)cc2c1=O

hepatocyte CLint (in vitro): 5 µL/min/1e6 cells
SMILES: Cc1ccc(NC(=O)c2ccno2)cc1-n1cnc2ccc(N3CCN(C)CC3)cc2c1=O

hepatocyte CLint (in vitro): < 3 µL/min/1e6 cells
SMILES: Cc1ccc(NC(=O)c2cccc(C#N)c2)cc1-n1cnc2ccc(N3CCN(C)CC3)cc2c1=O
